Experimental data as given in PubChem BioAssay AID463074 (Broad Institute, 2010).
Activity calls are given as the source filed them.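 Rule for the calls: active = AC50 no more than tenfold above the top dose tested, or full inhibition at every dose with a flat fit (cut at about 19 µM in these data); inconclusive = flat curve fit with inhibition between 30% and 70%, or poor fit; inactive = AC50 more than tenfold above the top dose tested.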

System: HMLE_sh_eGFP viability, CellTiter-Glo luminescence, 72 h
Experiment: viability loss of HMLE_sh_eGFP cells – cell-based, luminescence, counter-screen for HMLE_sh_ECad selective toxicity project, dose response (AID 463074);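 note: counterscreen control line to flag general toxicity for the HMLE_sh_ECad screen; potency for loss of viability as luminescence drops below DMSO wells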

Row | Structure (SMILES) | AC50
1 | Cn1cncc1C#Cc1c(-c2ccsc2)sc2ccccc12 | 7.26 µM
2 | COc1ccc2c(c1)[nH]c1c(=O)n(/N=C/C3C(C)C=C(C)CC3C)c(=O)[nH]c12 (configuration not stated) | > 19.5 µM (inactive)
3 | CC(C)Oc1ccc(C(=O)/C=C2/C(=O)Nc3ccccc32)cc1 | 6.4 µM
4 | Cc1ccc(C(C#N)c2ccc3c(C(F)(F)F)cc(C(F)(F)F)nc3n2)cc1 (configuration not stated) | 2.56 µM
5 | COC(=O)c1ccc(/C=C/c2c(-c3ccc(OC)cc3)sc3ccccc23)cc1 | 7.05 µM
6 | CC#CCOC(=O)c1c(C)nc2sc3c(c2c1N)CCC(O)C3 (configuration not stated) | 2.65 µM
7 | O=C(N/N=C/c1cc(Cl)cc([N+](=O)[O-])c1O)NC12CC3CC(CC(C3)C1)C2 | 4.59 µM
8 | COc1cc(CNCCc2c[nH]c3ccccc23)ccc1OCc1ccccc1F | 3.64 µM
9 | Cc1cc(N2CCN(c3ccc(C(F)(F)F)cc3[N+](=O)[O-])CC2)c2ccccc2n1 | 1.38 µM
10 | O=C(Nc1cc(C(F)(F)F)ccc1N1CCCCC1)c1ccc(Br)o1 | 8.32 µM
11 | CCn1c(C)c(C)c2cc(C(=O)N3CCN(c4cccc(C)c4C)CC3)ccc21 | 5.44 µM
12 | CCOC(=O)c1c2ccc(OCC(=O)N/N=C/c3ccc(C)cc3)cc2n2ccccc12 | 11.8 µM
13 | COC(=O)c1c(NC(=O)Cc2cccs2)sc2c1CCC(C)C2 (configuration not stated) | 9.75 µM
14 | C=C(C)[C@@H]1CC[C@]2(C(=O)O)CC[C@]3(C)C(CCC4[C@@]5(C)CC[C@H](O)C(C)(C)C5CC[C@]43C)C12 (some centres not stated) | 5.71 µM
15 | Cc1ccc(C=Nc2ccccc2C(N)=O)s1 | 2.79 µM
16 | CC(=O)Nc1ccc(SCC(=O)c2cc(C)n(-c3ccccc3)c2C)cc1 | 13.3 µM
17 | C[C@H](CO)N1C[C@H](C)[C@@H](CN(C)S(=O)(=O)c2ccccc2)Oc2ccc(NC(=O)Nc3ccc(C(F)(F)F)cc3)cc2C1=O | 12.9 µM
18 | C=C[C@@H]1c2cccc(C)c2N(S(=O)(=O)c2ccc(C)cc2)[C@H](c2ccc(OC(C)=O)cc2)C1(C#N)C#N | 6.71 µM
19 | O=C(Nc1ncc(S(=O)(=O)c2ccc([N+](=O)[O-])cc2)s1)c1ccc2ccccc2c1 | 3.61 µM
20 | O=C(Nc1nccs1)c1ccc(COc2ccccc2Br)o1 | 4.84 µM
21 | CN(CC(=O)Nc1ccc(Cl)c(Cl)c1)C(=O)C12CC3CC(CC(C3)C1)C2 | 6.2 µM
22 | COc1cc(/C=C2\C(=O)ON=C2c2ccc(Cl)cc2)ccc1O | 1.55 µM
23 | Cn1c(-c2ccsc2)c(-c2cccs2)c2cc(Br)ccc21 | 5.92 µM
24 | CC[C@@H]1CC=C[C@H]2[C@H]1C(=O)N(Cc1ccccc1)[C@H]2c1ccoc1 | 7.03 µM
25 | CCCn1c(SCC#N)nc2c(c1=O)C1(CCCC1)Cc1ccccc1-2 | 1.52 µM
26 | CCN(CC(=O)NC1CCCCC1)S(=O)(=O)c1ccc(Cl)cc1 | > 19.5 µM (inactive)

Row | Structure (SMILES) | AC50
27 | O=C(NCc1ccc(Cl)cc1)c1cccc(NC(=O)c2ccccc2)c1 | 6.79 µM
28 | CCCOc1ccccc1-n1sc2c(c1=S)-c1cc(OC)cc3c1N(C(=O)C3=O)C2(C)C | 9.1 µM
29 | CCOC(=O)c1c(CSc2ccccc2)n(C)c2cc(Br)c(OCC(O)CNC(CO)(CO)CO)cc12 (configuration not stated) | 1.84 µM
30 | O=C(/C=C/c1ccccc1)NNc1ccc(Cl)cc1 | 12 µM
31 | O=C1CC(c2ccc(F)cc2)CC2=C1C=Nc1ccccc1N2 (configuration not stated) | > 19.5 µM (inactive)
32 | C=C(Br)Cn1c(CCCC)nc2ccccc21 | 0.645 µM
33 | COc1ccc(C2=NN(c3nc4ccccc4s3)C(=O)C2)cc1 | 4.7 µM
34 | O=C(CSc1nnc(-c2ccccc2O)n1Cc1ccccc1)NNC(=O)c1ccccc1O | 3.22 µM
35 | COc1ccc(CCn2c(C3CCCCC3)nc3c(c(=O)c4ccccc4n3C)c2=O)cc1 | 5.17 µM
36 | CC[C@@H]1CC=C[C@H]2[C@H]1C(=O)N(Cc1ccccc1)[C@H]2c1ccc(OC)c(Cl)c1 | 7.13 µM
37 | COc1cc2ccccc2cc1C(=O)Nc1ccccc1Cl | 7.94 µM
38 | COc1ccc(-c2noc3c2-c2nc(-c4ccccc4C)sc2CC3)cc1 | 1.03 µM
39 | COc1ccc(OC)c(C(=O)CSc2nccc(-c3ccc(Br)cc3)n2)c1 | 1.31 µM
40 | Fc1ccc(C(c2ccc(F)cc2)N2CCN(C/C=C/c3ccccc3)CC2)cc1 | 7.18 µM
41 | COc1cccc(Cn2nnc(C(=O)Nc3cc(Cl)ccc3OC)c2N)c1 | 0.935 µM
42 | CC(=O)Nc1ccc(OCC(O)CN2CCN(c3ccc(C)c(Cl)c3)CC2)cc1 (configuration not stated) | 8.97 µM
43 | Cc1cc(S(=O)(=O)c2ccc([N+](=O)[O-])cn2)ccc1Br | 3.99 µM
44 | Cc1ccc(NC(=O)/C=C/c2ccc([N+](=O)[O-])s2)c(C)c1 | 2.3 µM
45 | CC1CCCC(NC(=S)Nc2ccc(SC(F)F)cc2)C1C (configuration not stated) | 6.34 µM
46 | COc1cccc(-c2sc3ccccc3c2-c2ccc(OCCN3CCOCC3)cc2)c1 | 4.3 µM
47 | CCc1ccc(Nc2nc(N)nc(CSc3nc4ccccc4s3)n2)cc1 | > 19.5 µM (inactive)
48 | Cc1c(O)cccc1C(=O)N[C@@H](CSc1ccccc1)[C@H](O)CN1C[C@H]2CCCC[C@H]2C[C@H]1C(=O)NC(C)(C)C | 7.33 µM
49 | COC(=O)C1=C(C)N(Cc2ccccc2)C(=NCc2ccccc2)N[C@H]1c1cccc(C(F)(F)F)c1 | 3.68 µM
50 | C/C(=N\OCc1nc2ccccc2c(=O)n1/N=C/c1cc([N+](=O)[O-])ccc1O)c1ccccc1 | 16 µM
51 | CC(NC(=O)c1ccc([N+](=O)[O-])o1)C12CC3CC(CC(C3)C1)C2 (configuration not stated) | 9.54 µM
52 | CC(=O)n1c2c(c3ccccc31)OC(N)=C(C#N)C2c1cccc(Cl)c1Cl (configuration not stated) | 4.88 µM
